This is an account of results in patent US12559863B2, “Macrocyclic modulators of disease associated protein misfolding and aggregation” (RESQ BIOTECH, priority 2017, dated 2026).

In data set [1] the target is T1, Aβ40 (Homo sapiens, UniProt P05067).
T1 construct: The main product of APP cleavage consists of 40 amino acids (Aβ40); purchased Eurogentec, Belgium; host or cells: chemical synthesis
Description: Circular dichroism of Aβ40 with cyclic peptide. To be noted: 50 μM Aβ, 33° C., 30 d. It is filed as biochemical. The protocol:
Synthetic Aβ40 and Aβ42 peptides were gently dissolved without vortexing in doubly deionized water to a final concentration of 100 μM. These solutions were then diluted by PBS addition (10 mM, pH 7.33) to achieve a final Aβ concentration of 50 μM.
Appropriate amounts of synthetic cyclic peptides were added to either 40 μM SOD1(A4V) or 50 μM Aβ solutions at the desired cyclic peptide:target protein molar ratio. SOD1(A4V) structural changes were monitored for 90 d at 25° C., under quiescent conditions. Aβ structural changes were monitored for 30 d at 33° C. under quiescent conditions. CD spectra in the range 190-260 nm were recorded on a JASCO J-715 spectropolarimeter (Jasco Co., Japan) using quartz cuvettes with 1 mm path length. Each reported spectrum is the average of three scans at a rate of 100 nm·min^−1 and a resolution of 0.5 nm.
In general terms: Circular dichroism is the unequal absorption of left and right circularly polarised light.

Data set [2] has as its target T1, Aβ40. Kind of data set: Thioflavin T dye-binding assay of Aβ40. It is filed as biochemical. The following applies: 30-d aged CD solutions. The method, then: For Aβ ThT staining, 100 μL of the 30-d aged 50 μM CD solutions were diluted in PBS (10 mM, pH 7.33) to form a 25 μM Aβ solution with 200 μL final volume. 2.5 μL from a stock solution of ThT (Sigma-Aldrich, USA) in PBS (10 mM, pH 7.33) was added to the prepared Aβ solutions to achieve a final ThT concentration of 5 μM. The mixture was agitated adequately by pipetting and immediately thereafter, fluorescence was monitored with excitation at 440 nm (EM slit=2.5 nm, PMT Voltage 700 V, response 0.4 s) using a HITACHI F-2500 (Japan) spectrofluorometer.

For data set [3], the system named is glioblastoma cell line U87MG. The data set is classed as cell-based, human. To be noted: for Aβ-induced toxicity in U87MG: MTT. The method, then:
The utilized U87MG cells (human glioblastoma-astrocytoma, epithelial-like cell line) were kind a gift from Dr. Maria Paravatou-Petsotas, Radiobiology Laboratory, Institute of Nuclear & Radiological Sciences & Technology, Energy & Safety, NCSR “Demokritos”. The utilized media/agents for U87MG cell cultures were obtained from Biochrom AG (Germany) and PAA Laboratories (USA). U87MG cells were grown in Dulbecco's modified Eagle medium (DMEM), supplemented with 10% fetal bovine serum (FBS), 2.5 mM L-glutamine, 1% penicillin/streptomycin at 37° C. and 5% CO2. For MTT cytotoxicity studies, cells were plated at a density of 2×10^4 cells per well in 96-well plates and incubated at 37° C. for 24 h to allow cells to attach. The medium was subsequently removed and cells were rendered quiescent by incubation in serum-free medium for 24 h. For cell viability measurements cells were subsequently treated with the indicated concentrations of Aβ in the presence or absence of synthetic peptides, as described in Materials and Methods.
(§1) Solutions of synthetic Aβ40 or Aβ42 (10 μM) in PBS, preincubated at 37° C. (3 d for Aβ40 solutions and 1 d for Aβ42 solutions) in the presence or absence of synthetic cyclic peptides (1:1 and 2:1 ratio of peptides:Aβ), were diluted with fresh medium and transferred into wells at a 1 μM final Aβ concentration. Cell viability was determined using the MTT assay. MTT (3-[4,5-dimethylthiazol-2-yl]-2,5-diphenyl tetrazolium bromide) was purchased from Applichem (Germany). After 24 h of exposure to Aβ solutions, 100 μL of a 0.5 mg/mL stock solution of MTT in Neurobasal-A was added to each well of primary hippocampal neurons followed by a 3 h incubation at 37° C., while 100 μL of a 1 mg/mL stock solution of MTT in DMEM complete medium was added to each well of U87MG cells followed by a 4 h incubation at 37° C. The medium was then removed and the cells were diluted in DMSO. The relative formazan concentration was measured by determination of the absorbance at 540 nm using a plate reader (Tecan, Austria). Results were expressed as the percentage of MTT reduction, assuming that the absorbance of control (untreated) cells was 100%, and represent the mean of three independent experiments with six replicate wells for each condition. Induced cell death was also qualitatively examined by phase-contrast microscopy (Carl Zeiss, Axiovert 25 CFL, Germany) using the above solutions. In each run, the effect of solutions of plain synthetic peptides and plain Aβ40 or Aβ42 was independently checked to serve as internal control.

Data set [4] has as its system Aβ-exposed neuronal cells. Kind of data set: Phase-contrast microscopy of Aβ-exposed neuronal cells. The data set is classed as cell-based, mouse. To be noted: pre-aggregated Aβ. The protocol: as §1, with “In each run, the effect of solutions of plain synthetic peptides and plain Aβ40 or Aβ42 was independently checked to serve as internal control.” left out
Data set [5] concerns C. elegans strain CL2006 (human Aβ42 in body wall muscle cells). Kind of data set: Paralysis assay in C. elegans CL2006 fed peptide-producing E. coli OP50. The data set is classed as in vivo, Caenorhabditis elegans. The following applies: fed throughout lifespan with E. coli OP50 producing the peptide. The source says:
To evaluate the protective effects of the selected cyclic peptides against Aβ aggregation and toxicity in vivo, the inventors employed two established models of AD in the nematode worm Caenorhabditis elegans. The conservation of genetic and metabolic pathways between C. elegans and mammals, in combination with its completely characterized nervous and muscular system, its easy visualization and simple manipulation, has nominated C. elegans as an excellent model for neurodegenerative diseases including AD, while chemical screening against Aβ-induced toxicity in C. elegans is increasingly used in AD drug discovery. The inventors performed initially a paralysis assay in CL2006, a strain where human Aβ42 is constitutively expressed in the body wall muscle cells of the animals and Aβ aggregate formation is accompanied by adult-onset paralysis. […] To evaluate the state of Aβ aggregation in vivo, we utilized the strain CL2331, which expresses an Aβ3-42-GFP fusion in its body wall muscle cells upon temperature up-shift.

Where a SMILES comes first, the peptide text is derived from it.

On to `C[C@@H]1NC(=O)[C@H](CO)NC(=O)[C@H]([C@@H](C)O)NC(=O)[C@@H]2CCCN2C(=O)[C@H](CO)NC1=O` [AβC5-34, cyclo-SASPT] (cyclo(ASPTS)), for which the “effect on aggregation process of Aβ40 (CD)” value (from here on “effect on aggregation process”) at Aβ40 [1] is “did not have the same effect and resulted in the appearance of a low-intensity negative peak”. Further, the “Aβ40 fibril formation (ThT)” value at Aβ40 [2] is “almost unaffected”. In data set [3], the “growth-promoting effects or cytotoxicity of peptide on its own” value is on record as “did not exhibit general growth-promoting effects or considerable cytotoxicity” and the “Aβ-induced toxicity in U87MG” value is “toxicity-suppressing effects”. The “morphology of Aβ-exposed neuronal cells” value in data set [4] is recorded as “marked recovery of the Aβ-induced alterations”. For the same compound, the “appearance of paralysis phenotype, CL2006” value in data set [5] was “significant delay”.

With cyclo-TWSVW (cyclic) [SOD1C5-4], the “effect on aggregation process” value in the data set with Aβ40 [1] was “did not have any effect”. Also, in the data set with Aβ40 [2], the “Aβ40 fibril formation (ThT)” value is reported as “did not have any effect”.

As for `C[C@@H]1NC(=O)[C@H]([C@@H](C)O)NC(=O)[C@H](CCCNC(=N)N)NC(=O)[C@H](CC(=O)O)NC(=O)[C@H](Cc2ccccc2)NC1=O` [AβC5-116, cyclo-TAFDR] (cyclo(AFDRT)), at Aβ40 [1], the “effect on aggregation process” value is “strongly inhibit the aggregation of Aβ40”. The “Aβ40 fibril formation (ThT)” value on Aβ40 [2] is given as “reduced”. In data set [3], the “growth-promoting effects or cytotoxicity of peptide on its own” value is given as “did not exhibit general growth-promoting effects or considerable cytotoxicity” and the “Aβ-induced toxicity in U87MG” value was “toxicity-suppressing effects”. Besides, the “morphology of Aβ-exposed neuronal cells” value in data set [4] is “marked recovery of the Aβ-induced alterations”. For the same compound, the “appearance of paralysis phenotype, CL2006” value in data set [5] is “significant delay”.
